Measurements as given in patent US12408664B2 (priority 2018, dated 2025).
Entries after “also recorded” stand apart in the source; their conditions may differ. Where two headings read alike, the source gives them in different places.

Experiments:
[1] = system: F. oxysporum; assay: Fungal plugs on YPA or PDA amended with CaP; type: cell-based, Fusarium oxysporum; settings: seven days, data not shown
Method: Cultures of F. oxysporum were grown on PDA medium until luxuriant. To test the effect of calcium propionate (CaP), fungal plugs were transferred to YPA or PDA amended with CaP and growth was monitored for seven days. YPA plates were amended with 1%, 4%, or 15% CaP.

[2] = system: G. graminis; assay: Zone of inhibition assay on PDA plates; type: cell-based, Gaeumannomyces graminis
Method: (§1) To test the efficacy of calcium propionate (CaP) against the four microbes listed above, zone of inhibition assays were performed. Wells were bored in potato dextrose agarose (PDA) plates then amended with […] calcium propionate at concentrations of 0.1%, 0.2%, 0.3%, 0.4%, and 0.5% (w/v). Control plates were amended with […] dH2O. Plates were inoculated using plugs from active cultures. Growth patterns were observed over seven days. Representative results with M. poae are shown at three days following inoculation (FIG. 1A) and seven days following inoculation (FIG. 1B).
(§2) The zone of inhibition assays described in Example 1 were performed using calcium propionate doses of 0.5%, 1%, 2%, 3%, and 4% (w/v). Growth diameter was recorded at 2, 5, and 7 days post inoculation. The data shown in Table 1 represent the average±standard deviation (SD) of two replicate plates for each strain tested.
(§3) Zone of inhibition assays using PDA plates amended with 5-12% (w/v) calcium propionate were performed as described above. As a control, plates were amended with a composition comprising propiconazole, a commonly used fungicidal treatment for microbe infection of turfgrass, sold under the trademark Banner MaxxII®. Growth diameter was recorded for 13 days post inoculation. The data shown in Table 2 represent the average±standard deviation (SD) of three replicate plates for each strain tested. Inoculants of S. homoeocarpa, M. poae, and R. solani generally grow to luxuriant culture, covering the entire surface of the plate (8.5 cm growth) in 7 days.

[3] = system: M. poae; type: cell-based, Magnaporthe poae
[4] = system: M. poae; type: cell-based, Magnaporthe poae; remark: listed apart in the source
[5] = system: G. graminis; assay: New inoculants in MEB liquid culture amended with calcium propionate; type: cell-based, Gaeumannomyces graminis; settings: MEB with 1, 2, 5 and 10% (w/v) calcium propionate; five days
Method: To examine the effective dose range in liquid culture, malt extract broth (MEB) was prepared and amended with calcium propionate at concentrations of 1, 2, 5 and 10% (w/v). Unamended MEB was used as a control for growth. Each of the four microbes identified in Example 1 was tested twice by inoculating MEB using agarose plugs from luxuriant cultures. Growth was observed over five days. In each microbe examined, visible growth in liquid culture was apparent by day 2 following inoculation with well-established growth by 4 days in the absence of calcium propionate.

[6] = system: S. homoeocarpa; assay: Zone of inhibition assay on PDA plates; type: cell-based, Scerotinia homoeocarpa
Method: as §1, §2, §3

[7] = system: M. poae; type: cell-based, Magnaporthe poae; settings: MEB with 1, 2, 5 and 10% (w/v) calcium propionate; five days
[8] = system: R. solani; assay: Established liquid cultures, two days calcium propionate then washout; type: cell-based, Rhizoctonia solani
Method: (§4) To further examine the impact of calcium propionate on established liquid cultures, MEB was inoculated by plug transfer and cultures were allowed to grow for one to six days. Following this, calcium propionate was added to active cultures to a final concentration of 1%, 2%, or 5% (w/v); control cultures had no calcium propionate. Calcium propionate was then added to established one to six day old cultures and cultures were allowed to grow in the presence of calcium propionate for two days, after which, calcium propionate was washed out and cultures were returned to MEB only. Growth following calcium propionate washout was recorded over 14 days.

[9] = system: R. solani; assay: Plug transfer to PDA plates without calcium propionate (fungistatic or fungicidal); type: cell-based, Rhizoctonia solani
[10] = system: G. graminis; assay: Established liquid cultures, two days calcium propionate then washout; type: cell-based, Gaeumannomyces graminis
Method: as §4

[11] = 5-12% (w/v) calcium propionate, day 2, average ± SD of three plates
[12] = 5-12% (w/v) calcium propionate, day 3, average ± SD of three plates
[13] = 5-12% (w/v) calcium propionate, day 6, average ± SD of three plates
[14] = 5-12% (w/v) calcium propionate, day 7, average ± SD of three plates
[15] = 5-12% (w/v) calcium propionate, day 10, average ± SD of three plates
[16] = 5-12% (w/v) calcium propionate, day 13, average ± SD of three plates
[17] = wells 0.1-0.5% (w/v) calcium propionate, observed over seven days
[18] = wells 0.5-4% (w/v) calcium propionate, day 2, average ± SD of two plates
[19] = wells 0.5-4% (w/v) calcium propionate, day 5, average ± SD of two plates
[20] = wells 0.5-4% (w/v) calcium propionate, day 7, average ± SD of two plates
[21] = 2-4% (w/v) calcium propionate, repeat, data not shown
[22] = wells 0.5-4% (w/v) calcium propionate, seven day growth period
[23] = 1%, 2% or 5% (w/v), established one to six day old cultures, two days
[24] = all concentrations tested (1-5% w/v)

CCC(=O)[O-].CCC(=O)[O-].[Ca+2] [calcium propionate]
F. oxysporum growth ([1]; YPA amended with 1% CaP): not impacted | F. oxysporum growth ([1]; YPA amended with 4% or 15% CaP): unable to grow | Growth, G. graminis [2, 11]: 1.2 ± 0.3 cm | Growth, G. graminis [2, 12]: 2.2 ± 0.3 cm | Growth, G. graminis [2, 13]: 2.7 ± 0.3 cm | Growth, G. graminis [2, 14]: 4.0±0.6 cm | Growth, G. graminis [2, 15]: 5.9 ± 0.5 cm | Growth, G. graminis [2, 16]: 8.3 ± 0.3 cm | growth inhibition, G. graminis [2, 17]: no growth inhibition was observed | growth inhibition, G. graminis ([2]; wells 0.5-4% (w/v) calcium propionate, 2 and 5 days post inoculation): growth inhibition | growth difference versus control plates, G. graminis ([2]; wells 0.5-4% (w/v) calcium propionate, 7 days post inoculation): no growth difference was observed | Growth, G. graminis [2, 18]: 1.6 ± 0.1 cm | Growth, G. graminis [2, 19]: 4.7 ± 0.2 cm | Growth, G. graminis [2, 20]: 7 ± 0.1 cm | growth inhibition in repeated experiments, M. poae [3, 21]: mixed | Growth, M. Poae [3, 11]: 1.1 ± 0.1 cm | Growth, M. Poae [3, 12]: 1.5 ± 0.2 cm | Growth, M. Poae [3, 13]: 2.1 ± 0.4 cm | Growth, M. Poae [3, 14]: 3.1±0.4 cm | Growth, M. Poae [3, 15]: 5.8 ± 0.7 cm | Growth, M. Poae [3, 16]: 8.2 ± 0.5 cm | growth inhibition, M. poae [3, 17]: no growth inhibition was observed | Growth, M. Poae [3, 18]: 1.5 ± 0.2 cm | Growth, M. Poae [3, 19]: 4.3 ± 0.1 cm | Growth, M. Poae [3, 20]: 6.9 ± 0.1 cm | growth inhibition, M. poae [3, 22]: clear growth inhibition; also recorded: inhibited to a similar degree | growth recovery over 14 days after removal, M. poae ([4]; 1% or 2% (w/v) calcium propionate): varying degrees of growth recovery | growth while calcium propionate was present, M. poae [4, 23]: growth was inhibited | growth recovery over 14 days after removal, M. poae ([4]; 5% (w/v) treatment): no growth recovery was observed | growth three days following removal of calcium propionate, M. poae [4, 24]: continued growth inhibition | growth in liquid culture, G. graminis [5]: no growth was observed | growth inhibition in repeated experiments, S. homoeocarpa [6, 21]: mixed | Growth, S. homeocarpa [6, 11]: 2.8 ± 0.2 cm | Growth, S. homeocarpa [6, 12]: 3.5 ± 0.3 cm | Growth, S. homeocarpa [6, 13]: 3.8 ± 0.1 cm | Growth, S. homeocarpa [6, 14]: 4.3 ± 0.3 cm | Growth, S. homeocarpa [6, 15]: 6.2 ± 0.3 cm | Growth, S. homeocarpa [6, 16]: 7.8 ± 0.6 cm | growth inhibition, S. homoeocarpa [6, 17]: no growth inhibition was observed | Growth, S. homeocarpa [6, 18]: 1.9 ± 0.3 cm | Growth, S. homeocarpa [6, 19]: 4.5 ± 0.5 cm | Growth, S. homeocarpa [6, 20]: 6.08±0.57 cm | Growth, S. homeocarpa ([6]; wells 0.5-4% (w/v) calcium propionate, day 7, average ± SD of two plates, listed as Cap): 4.5 ± 0.6 cm | growth inhibition, S. homoeocarpa [6, 22]: clear growth inhibition | growth in liquid culture, M. poae [7]: no growth was observed | growth while calcium propionate was present, R. solani [8, 23]: growth was inhibited | growth inhibition over two weeks after removal, R. solani [8, 24]: some minor growth inhibition | growth three days following removal of calcium propionate, R. solani ([8]; concentrations examined (1-5% w/v)): robust growth was observed | concentration required to achieve a fungicidal effect on R. solani [9]: 10-12 % (w/v) | fungistatic or fungicidal effect, R. solani ([9]; 5% (w/v) calcium propionate): fungistatic rather than fungicidal | growth on unamended PDA after plug transfer, R. solani ([9]; plugs from 5% and 7.5% (w/v) calcium propionate plates, 6-7 days following transfer): luxuriant growth | growth on unamended PDA after plug transfer, R. solani ([9]; plugs from 10% and 12% (w/v) calcium propionate plates): did not grow | growth while calcium propionate was present, G. graminis [10, 23]: growth was inhibited | growth three days following removal of calcium propionate, G. graminis ([10]; all concentrations tested (1-5% w/v), data not shown): continued growth inhibition | growth up to two weeks following calcium propionate removal, G. graminis ([10]; concentrations as low as 1% (w/v)): no growth was observed
